Experimental data taken from patent US12121596B2, “Near infrared fluorescent dyes, formulations and related methods” (Washington University, priority 2019, dated 2024).
Positions of bridges follow the written chain, without caps; N, C: chain ends. Non-standard residues stand in square brackets, D forms with d. Residues, ends and D or L forms follow the SMILES beside them. *: point of attachment. X1 = CC1(C)C(/C=C/C=C/C=C/C=C2/N(CCC(=O)*)c3ccc4ccccc4c3C2(C)C)=[N+](CCC(=O)[O-])c2ccc3ccccc3c21

Tests used:
[1] = biological target: T1, ANXA2 over ANXA1 and ANXA3 (Homo sapiens, UniProt P07355); assay: Annexin selectivity, fluorescent gel binding; settings: ANXA2 vs ANXA1 and ANXA3
T1 construct: GST; purchased MyBioSource, Inc
T1 sequence (P07355 whole entry): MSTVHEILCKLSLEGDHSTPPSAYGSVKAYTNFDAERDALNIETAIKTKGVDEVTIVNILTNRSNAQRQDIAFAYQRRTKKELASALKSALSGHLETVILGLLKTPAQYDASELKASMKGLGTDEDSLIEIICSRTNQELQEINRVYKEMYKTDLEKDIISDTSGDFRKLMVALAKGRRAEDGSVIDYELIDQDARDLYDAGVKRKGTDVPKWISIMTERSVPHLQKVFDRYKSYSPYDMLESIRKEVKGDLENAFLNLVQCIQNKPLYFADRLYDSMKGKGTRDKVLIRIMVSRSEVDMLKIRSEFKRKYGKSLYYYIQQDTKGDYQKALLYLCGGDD
Method: For fluorescent gel binding experiments, 1 μg recombinant annexin A2 protein was incubated with LS301 or cypate (10 μM) at 37° C. for the periods indicated. Samples were subjected to SDS-PAGE on precast gels (Bio-Rad, Hercules, CA), and gels were imaged for near-infrared fluorescence (800 nm) using a Pearl Small Animal Imager (LI-COR Biosciences, Lincoln, NE, USA). For competitive binding experiments, Annexin A2-GST, annexin A1, or annexin A3 (1.0 μg protein per sample) was pre-incubated with or without 2.5 mM of LS637 (non-fluorescent LS301 analog; blocking peptide) in binding buffer (25 mM Tris-HCl pH 7.4, 150 mM NaCl, 1 mM MgCl2, 1 mM CaCl2) for 1 hour at 37° C. Ten μM. LS301 was then added to each sample. After incubation for 2 hours at 37° C., proteins were subjected to SDS-PAGE and imaged fluorescently. For some experiments, LS301 was incubated with 4T1 tumor cells before SDS-PAGE.

[2] = system: breast cancer patient-derived xenograft; assay: In vivo NIR imaging of tumor retention; design: species or system mice
Method: To establish the various tumor models, nude, Balb/c, or C57BL6 mice were injected with 10^5-10^7 tumor cells subcutaneously on unilateral or bilateral flanks. In some cases, spontaneous tumor models were used. Animals injected subcutaneously with saline served as sham tumor controls. For near-infrared imaging, 100 μL volumes of 60 μM LS301 or cypate in PBS were injected intravenously by lateral tail vein, and animals were imaged using a Pearl Small Animal Imager (LI-COR Biotechnology, Lincoln, NE, USA) at the indicated time points. In some experiments, probes were formulated in 1% albumin in PBS. Animals were shaved using commercially available hair removal equipment and products before imaging. For experiments involving further tissue analysis, animals were anesthetized with isoflurane and euthanized by cervical dislocation under anesthesia. Organs were harvested by surgical dissection. For quantitative organ biodistribution studies, individual regions of interest were drawn around each organ of interest, and fluorescence was quantified using the Pearl Small Animal Imager software.

tumor = assay: NIR contrast evaluation of DMSO and ethanol-based formulations; format: in vivo
From the text: No difference in histology between the various solvents was seen.

[3] = Solubility and dilution stability of LS301 stock solutions; format: physicochemical; settings: transparent solution, no precipitate after centrifugation
Method: At room temperature (˜25° C.), 200 μL of DMSO was added to 0.5 mg LS301 and vortexed for about 1 minute to homogenize. The solution was centrifuged to remove any non-dissolved components. The concentration was measured via absorbance.
Generally, solution concentrations ranged between 290 and 330 μM. This concentrated solution was diluted dropwise into 800 μL phosphate-buffered saline (PBS) calculated such that the final concentration was 60 μM LS301 and that the final concentration was 20% DMSO/80% PBS by volume (“20% DMSO”).
A 1:1 PEG400/Ethanol solution (v/v) was prepared by mixing 4 mL of PEG400 and 4 mL of ethanol and vortexing at high speed for 1 minute. 200 μL of this 1:1 solution was added to about 0.5 mg of LS301 to produce a transparent solution (>300 μM). No precipitate was observed after centrifugation.
LS301's solubility in ethanol ranged near the cutoff for producing a 20% ethanol/PBS solution. […] The 1:1 PEG400/ethanol solution could maintain stability up to about 1-to-16 dilution. In vivo, a screening test was done by IV injection of 60 μM solution into a Balb/c mouse with two 4T1luc tumors dorsally injected. […] To confirm LS301's multitumor affinity in the new solvent, solutions were tested against HT1080, A431, and DBT tumor-bearing mice.

What does the source list for CC1(C)C(/C=C/C=C/C=C/C=C2/N(CCC(=O)N[C@@H]3CSSC[C@@H](C(=O)N[C@@H](CCCCN)C(=O)O)NC(=O)[C@@H]4CCCN4C(=O)[C@H](CO)NC(=O)[C@H](CC(=O)O)NC(=O)[C@H](CCCNC(=N)N)NC(=O)CNC3=O)c3ccc4ccccc4c3C2(C)C)=[N+](CCC(=O)[O-])c2ccc3ccccc3c21 [LS301, cypate-cyclic (DCys-Gly-Arg-Asp-Ser-Pro-Cys)-Lys-OH] (X1-[dC]GRDSPCK-OH; disulfide 1-7)?
annexin binding preference [1]: preferentially targets ANXA2 over ANXA1 and ANXA3; time remaining in the tumor lesion ([2]; breast cancer patient-derived xenograft): over 96 hours; tumor coverage ([2]; small tumors (<5 mm)): about 100%; tumor uptake compared to renal or hepatic clearance (tumor; 20% PEG400 solutions): increased tumor uptake; NIR contrast (tumor; in 20% PEG400): significantly increased contrast; clearance mechanism (tumor; in vivo): cleared via renal and hepatic mechanisms; solution concentration in 1:1 PEG400/Ethanol [3]: > 300 µM
